The values that follow come from ChEMBL document CHEMBL1155627, “HIV-Inhibitory prenylated xanthones and flavones from Maclura tinctoria” (J Nat Prod, 2000).

By EC50 is commonly meant the concentration at which the effect is half-maximal. Read a low EC50 as greater potency. One may read the IC50 as the concentration that inhibits the measured activity by half.

The subject of experiment [1] is Human immunodeficiency virus 1. The experiment can be described thus: Antiviral activity against HIV1. The format is functional, organism-based.
For experiment [2], the system named is CEM-SS. The experiment can be described thus: Cytotoxicity against human CEM-SS cells. In kind it is cell-based.

Converted amounts (≈) assume the structure as drawn. The source made the active and inactive calls. The rule behind the calls is not given here.

`C=CC(C)(C)c1c(O)c(CC=C(C)C)c2oc3c(O)c(O)ccc3c(=O)c2c1O` [MACLURAXANTHONE C] registered an EC50 in experiment [1] of 1.3 µg/mL (≈ 3.28 µM). Also, in experiment [2], the IC50 stood at 3.7 µg/mL (≈ 9.33 µM).
Consider `CC(C)=CCc1c(-c2ccc(O)cc2O)oc2cc3c(c(O)c2c1=O)CCC(C)(C)O3` [DIHYDROCUDRAFLAVONE B], for which the result in experiment [1] was inactive. The same molecule returned an IC50 in experiment [2] of 12 µg/mL (≈ 28.4 µM).
On to `CC(C)=CCc1c(O)c(CC=C(C)C)c2oc3c(O)cccc3c(=O)c2c1O` [8-DEOXYGARTANIN], for which the result in experiment [1] was inactive. In experiment [2], this molecule showed an IC50 of 4.9 µg/mL (≈ 12.9 µM).
`CC(C)=CCc1c(O)cc2oc(-c3ccc(O)cc3O)c(CC=C(C)C)c(=O)c2c1O` [CUDRAFLAVONE C]: the result in experiment [1] was inactive. This molecule also came in with an IC50 in experiment [2] of 5 µg/mL (≈ 11.8 µM).
For `C=CC(C)(C)c1c(O)c(CC=C(C)C)c2oc3cc(O)c(O)cc3c(=O)c2c1O` [MACLURAXANTHONE B], in experiment [1], the response was half-maximal at 1 µg/mL (≈ 2.52 µM) (EC50). For the same molecule, inhibition in experiment [2] was half-maximal at 2.2 µg/mL (≈ 5.55 µM) (IC50).
For `CC(C)=CCc1c(O)cc2oc3c(c(=O)c2c1O)C(C=C(C)C)Oc1cc(O)ccc1-3` (centres undefined) [ISOCYCLOMULBERRIN], in that order: 7.5 µg/mL (≈ 17.8 µM) and 17 µg/mL (≈ 40.4 µM).
For the molecule `CC(C)=CCc1c(O)c(CC=C(C)C)c2oc3c(O)ccc(O)c3c(=O)c2c1O` [GARTANIN], the outcome in experiment [1] was inactive. Besides, the concentration for half-maximal inhibition (IC50) in experiment [2] was 5.3 µg/mL (≈ 13.4 µM).
